One assay has as its system distinct OC cell lines. Description: Anti-OC activity against distinct cell lines (GI50 range). It counts as cell-based. The following applies: Homo sapiens; range over the OC cell lines tested. How it is done:
Once cell adhesion had been promoted, the compounds were added to the culture medium. After 72 hours of treatment, the cells were counted, and the data analyzed by linear regression. Each experiment was carried out three times in triplicate and three separate cell counts were made for each sample.
Afterwards, the concentration range was narrowed to the relative value obtained in the first evaluation in order to obtain an accurate value.

Another assay relates to miR-21. Description: miR-21 expression in HeLa cells (qRT-PCR). The format is cell-based, human. The following applies: 50 μM, 6 hours. How it is done: Total RNA was extracted using the Direct-zol RNA MiniPrep kit (Zymo Research) with on-column DNase treatment, according to the manufacturer's instructions. Reverse transcription was carried out with SuperScript VILO cDNA Synthesis Kit (Life Technologies) and the cDNA samples were analyzed by qRT-PCR using PowerUp SYBR Green Master Mix (Thermo Fisher Scientific). For miR-21 expression analysis total RNA was retrotranscribed using miRCURY® LNA® RT Kit (Qiagen) and the cDNA was analyzed by using miRCURY® LNA® miRNA PCR Assay (Qiagen). The oligonucleotides used are the following: GAPDH_FW […]; GAPDH_REV […]; ATP5O_FW […]; ATP5O_REV […]; hsa-miR-21-5p miRCURY LNA miRNA PCR Assay (YP00204230); U6 snRNA (v2) miRCURY LNA miRNA PCR Assay (YP02119464).

In the next assay the target is T1, TRBP (Homo sapiens, UniProt Q15633).
T1 sequence (Q15633 1-366): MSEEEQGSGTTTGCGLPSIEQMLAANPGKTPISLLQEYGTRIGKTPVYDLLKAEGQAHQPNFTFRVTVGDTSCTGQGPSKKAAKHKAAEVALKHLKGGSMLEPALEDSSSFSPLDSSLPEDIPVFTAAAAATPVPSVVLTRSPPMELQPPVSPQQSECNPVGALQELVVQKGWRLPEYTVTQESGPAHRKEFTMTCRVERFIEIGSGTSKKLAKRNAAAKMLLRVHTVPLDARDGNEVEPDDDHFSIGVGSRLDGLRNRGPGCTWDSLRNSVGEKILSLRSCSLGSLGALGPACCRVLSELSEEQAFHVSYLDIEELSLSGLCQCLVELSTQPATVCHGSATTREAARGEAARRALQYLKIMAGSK
Description: Cellular thermal shift assay of TRBP (HEK-293T lysates, Western blot). The format is binding. Also noted: endogenous in cells; host or cells: HEK-293T. On the procedure:
HEK-293T cells were harvested in PBS supplemented with protease inhibitor cocktail (complete, EDTA-free, Roche). Cell suspensions were freeze-thawed three times in liquid nitrogen and then centrifuged (20 000g) for 10 min at 4 °C. The lysates were diluted at concentration of 2 μg μL^−1 and then treated with DMSO and 50 μM of 33 or with increasing concentration of 33 for 30 min at 37 °C. After this incubation the lysates were divided into equal parts (50 μL) and heated individually at designated temperatures for 3 min. The heated samples were cooled at room temperature for 3 min and centrifuged (20 000g) for 10 min at 4 °C. The supernatants were transferred to new tubes and analyzed by use for western blotting.
Lysates were loaded on 4–12% bis–tris-acrylamide gel (Life Technologies) and transferred to a nitrocellulose membrane. The membrane was blocked in 5% milk and hybridized with α-TRBP (15753-1-AP Proteintech), α-GAPDH (sc-25778, Santa Cruz Biotechnology), α-c-PARP (Bioss Antibodies, BSM-52408R), α-BCLXL (mAb #2764, Cell Signaling Technology) and α-β-actin (A3854, Sigma) antibodies. All the images were captured using the ChemiDocTM Touch Imaging System (Bio-Rad), and the densitometric analyses were performed using the associated Image Lab software (Bio-Rad).

Another assay relates to A549 (lung carcinoma). Nature of the assay: Proliferation of A549 cells (trypan blue count). Conditions: 30 μM, 72 hours. It counts as cell-based, human. On the procedure: A2780 and SKOV-3 cells were treated with 50 μM of 33 for 72 h before RNA and protein extraction and expression analyses. A2780 and A2780 CIS were treated with 33 (30 μM) and/or cisplatin (1 μM, Sigma-Aldrich) for 48 hours while MCF-7, A549 and HCT-116 were treated with 33 (30 μM) for 72 hours. Total cell number and viability have been assessed using Trypan Blue Solution (Thermo Fisher Scientific) and Countess™ 3 Automated Cell Counter (Thermo Fisher Scientific).

The test system of another assay is KO TRBP HCCLM3 cells. Description: Antiproliferative effect on KO TRBP HCCLM3 cells (CCK-8). The format is cell-based, human. The following applies: 30 μM, 48 hours. On the procedure:
(§1) HCCLM3 and SK-Hep-1 cells were seeded into 96-well plates at a density of 10 000 cells per well and allowed to adhere overnight. Subsequently, the cells were treated with the following substances: 0.1% DMSO as the negative control, various concentrations of the test compounds, and 125 μM enoxacin as the positive control. After 48 h of incubation, the original culture medium was removed, and the cells were washed twice with PBS. Then, 100 μL of DMEM culture medium containing 10% CCK-8 (Bimake, USA) was added to each well. The plates were incubated for 30 minutes at 37 °C. To determine the […], measurements were taken at a wavelength of 450 nm using a Varioskan from Thermo Fisher Scientific.

A further assay has as its system WT SK-Hep-1 cells. Description: Antiproliferative effect on WT SK-Hep-1 cells (CCK-8). Conditions: 48 hours. It counts as cell-based, human. How it is done:
as §1

A further assay has as its target T2, hTopI (Homo sapiens, UniProt P11387).
T2 construct: endogenous in cells
Description: Detection of hTOP1 cleavage complexes (cleavage assay). The format is cell-based. Conditions: 100 μM. How it is done: After compound treatments, 1 × 10^6 human cells in 35 mm dish per sample were washed with 1× phosphate-buffered saline (PBS) and lysed with 600 μL of DNAzol (Invitrogen), followed by precipitation with 300 μL of 200 proof ethanol. The nucleic acids were collected, washed with 75% ethanol, resuspended in 200 μL of TE buffer, and then heated at 65 °C for 15 min, followed by shearing with sonication (40% output for 10 s pulse and 10 s rest for four times). The samples were centrifuged at 15 000 rpm for 5 min at 4 °C, and the supernatant were collected. 1 μL of each sample was removed for spectrophotometric measurement of absorbance at 260 nm to quantitate DNA content (NanoDrop). 2 μg of each sample was subjected to slot-blot for immunoblotting using anti-hTOP1 antibody (BD Pharmingen, 556597) and anti-hTOP2α antibody (Santa Cruz biotechnology, 365916).[51]

The test system of a further assay is SKOV-3 cells. Nature of the assay: SKOV-3 cell number, cell death and apoptosis markers (trypan blue, Western blot). It counts as cell-based, human. Conditions: 30 μM, 72 hours.

T2 sequence (P11387 whole entry): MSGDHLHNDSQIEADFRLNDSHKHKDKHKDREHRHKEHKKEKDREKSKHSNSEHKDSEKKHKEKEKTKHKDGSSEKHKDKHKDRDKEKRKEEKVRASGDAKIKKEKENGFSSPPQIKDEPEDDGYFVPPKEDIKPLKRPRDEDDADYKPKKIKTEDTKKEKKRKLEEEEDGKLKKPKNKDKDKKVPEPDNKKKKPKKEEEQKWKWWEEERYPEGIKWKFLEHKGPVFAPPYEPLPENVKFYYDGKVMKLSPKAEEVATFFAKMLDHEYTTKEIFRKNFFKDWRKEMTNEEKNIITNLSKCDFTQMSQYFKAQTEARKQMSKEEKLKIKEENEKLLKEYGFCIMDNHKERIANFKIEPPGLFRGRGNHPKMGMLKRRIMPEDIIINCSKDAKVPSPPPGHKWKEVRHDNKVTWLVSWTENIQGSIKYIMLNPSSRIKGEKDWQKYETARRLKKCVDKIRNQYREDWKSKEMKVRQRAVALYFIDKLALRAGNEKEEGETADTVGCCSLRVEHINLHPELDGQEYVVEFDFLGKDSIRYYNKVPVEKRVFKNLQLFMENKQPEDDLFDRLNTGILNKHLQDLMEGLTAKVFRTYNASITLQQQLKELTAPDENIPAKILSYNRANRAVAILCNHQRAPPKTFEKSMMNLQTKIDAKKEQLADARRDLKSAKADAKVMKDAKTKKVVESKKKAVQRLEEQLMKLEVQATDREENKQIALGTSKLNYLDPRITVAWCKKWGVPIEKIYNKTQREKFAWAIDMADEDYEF

`O=C(O)c1cn(C2CC2)c2cc(N3CCc4ccccc4C3)c(F)cc2c1=O` [Compound 33, 1-Cyclopropyl-7-(3,4-dihydroisoquinolin-2(1H)-yl)-6-fluoro-4-oxo-1,4-dihydroquinoline-3-carboxylic acid]: in the assay with distinct OC cell lines, the GI50 is 13.5 to 31 µM. Besides, the “miR-21 level in HeLa cells” value in the assay on miR-21 is “Upregulation of miR-21”. Moreover, the “thermal shift of TRBP versus DMSO” value on TRBP (50 μM, different temperatures) was “significant thermal shift”. The “concentration dependency of TRBP destabilization” value at TRBP (increasing concentration, 55 °C) was “destabilization of TRBP in a concentration-dependent manner”. In addition, the “effect on A549 cell proliferation” value in the assay with A549 (lung carcinoma) is recorded as “significant inhibitory effect on cell proliferation”. Also, the “antiproliferative effect on KO TRBP HCCLM3 cells” value in the assay on KO TRBP HCCLM3 cells is on record as “no antiproliferative effect”. For the same molecule, the “antiproliferative effect on WT TRBP SK-Hep-1 cells” value in the assay with WT SK-Hep-1 cells (30 μM) is recorded as “less evident”. The “viability of WT SK-Hep-1 cells” value in the assay with WT SK-Hep-1 cells (50 μM) is on record as “significantly reduced the viability”. In addition, on hTopI, the “trapping/inhibition of hTopI (cleavage assay)” value is recorded as “no inhibition or trapping activity”. Besides, in the assay on SKOV-3 cells (Western blot), the “c-PARP and Bcl-XL in SKOV-3 cells” value is reported as “No changes”. The “total number of SKOV-3 cells” value in the assay with SKOV-3 cells (trypan blue) was “greatly reduced”.

Source of the values: paper PMC11467779, “New anti-ovarian cancer quinolone derivatives acting by modulating microRNA processing machinery” (RSC Medicinal Chemistry, 2024).
